Experiments:
H358 cells = test: H358 cell proliferation inhibition (CellTiter-Glo luminescent cell viability assay); assay type: cell-based; settings: Homo sapiens, NCI-H358, 168 h, 7 days
Procedure, shortened: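 H358 cells seeded at 3000 cells/well in RPMI1640/10% FBS, treated with compound for 7 days at 37 °C/5% CO2. Viability read by CellTiter-Glo 3D luminescence, normalised to cell-free (100%) and compound-free (0%) controls; IC50 fitted from 8 concentrations by four-parameter curve.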

[1] = system: p-ERK pathway in H358 cells; test: p-ERK pathway inhibition in H358 cells (Advanced phospho-ERK (Thr202/Tyr204) cellular kit, HTRF); assay type: cell-based; settings: Homo sapiens, NCI-H358, 1 h compound incubation
Procedure, shortened: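 Serum-starved H358 cells (50000/well, overnight) treated with compound for 1 h at 37 °C, then lysed; phospho-ERK (Thr202/Tyr204) read by HTRF (665/620 nm ratio). Cell-free wells set 100% inhibition, untreated cells 0%; IC50 fitted from 8 concentrations by four-parameter curve.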

| IC50 (H358 cells) [nM] | IC50 [1] [nM] | Compound |
| --- | --- | --- |
| 71.6 | 133 | Cc1nc(N[C@H](C)c2cccc(C(F)F)c2F)c2cn(C3(CF)CC3)c(=O)c(N3CCC(C)(O)C3)c2n1 (stereo partly drawn) [Example 62, 4-(((R)-1-(3-(difluoromethyl)-2-fluorophenyl)ethyl)amino)-6-(1-(fluoromethyl)cyclopropyl)-8-(3-hydroxy-3-methylpyrrolidin-1-yl)-2-methylpyrido[4,3-d]pyrimidine-7(6H)-one] |
| 35.4 | 16.7 | [2H]C([2H])([2H])[C@@H](Nc1nc(C)nc2c(N3CCOCC3)c(=O)n(C3(CF)CC3)cc12)c1cccc(C(F)F)c1F [Example 90] |
| 13.3 | 22.4 | Cc1nc(N[C@H](C)c2cccc([N+](=O)[O-])c2C)c2cn(C3(CF)CC3)c(=O)c(N3CCOCC3)c2n1 [Example 117, (R)-6-(1-(fluoromethyl)cyclopropyl)-2-methyl-4-((1-(2-methyl-3-nitrophenyl)ethyl)amino)-8-morpholinylpyrido[4,3-d]pyrimidine-7(6H)-one] |
| 148 | 133 | Cc1nc(N[C@H](C)c2cccc(C#N)c2C)c2cn(N3CCOCC3)c(=O)c(OC3(C)CC3)c2n1 [Example 91, (R)-2-methyl-3-(1-((2-methyl-8-(1-methylcyclopropoxy)-6-morpholinyl-7-oxo-6,7-dihydropyrido[4,3-d]pyrimidin-4-yl)amino)ethyl)benzonitrile] |
| 69.6 | 52.5 | COc1c(=O)n(C2(C)CCN(C(C)=S)C2)cc2c(N[C@H](C)c3cccc(C(F)F)c3F)nc(C)nc12 (some centres unmarked) [Example 19] |
| 15.8 | 34.8 | Cc1nc(N[C@H](C)c2cccc(C(F)F)c2F)c2cn(C3(CF)CC3)c(=O)c(N3CCN(C4(C)COC4)CC3)c2n1 [Example 143] |
| 11.7 | 100 | Cc1nc(N[C@H](C)c2cccc(C(F)F)c2F)c2cn(C3(CF)CC3)c(=O)c(N3CCN(C)CC3)c2n1 [Example 38, (R)-4-((1-(3-(difluoromethyl)-2-fluorophenyl)ethyl)amino)-6-(1-(fluoromethyl)cyclopropyl)-2-methyl-8-(4-methylpiperazin-1-yl)pyrido[4,3-d]pyrimidine-7(6H)-one] |
| 187 | 28 | COc1c(=O)n(C2(CF)CCN(C(C)=O)C2)cc2c(N[C@H](C)c3cccc([N+](=O)[O-])c3C)nc(C)nc12 (stereo partly drawn) [Example 16, 6-(1-acetyl-3-(fluoromethyl)pyrrolidin-3-yl)-8-methoxy-2-methyl-4-(((R)-1-(2-methyl-3-nitrophenyl)ethyl)amino)pyrido[4,3-d]pyrimidine-7(6H)-one] |
| 71.8 | 104 | CC(=O)N1CCC(Oc2c(=O)n(C3(CF)CC3)cc3c(N[C@H](C)c4cccc(C(F)F)c4F)nc(C)nc23)CC1 [Example 73, (R)-8-((1-acetylpiperidin-4-yl)oxy)-4-((1-(3-(difluoromethyl)-2-fluorophenyl)ethyl)amino)-6-(1-(fluoromethyl)cyclopropyl)-2-methylpyrido[4,3-d]pyrimidine-7(6H)-one] |

The next lines start with the compound.

| Compound | IC50 (H358 cells) [nM] | IC50 [1] [nM] |
| --- | --- | --- |
| [2H][C@](C)(Nc1nc(C)nc2c(N3CCC(S(C)(=O)=O)CC3)c(=O)n(C3(CF)CC3)cc12)c1cccc(C(F)F)c1F [Example 125, (R)-4-((1-(3-(difluoromethyl)-2-fluorophenyl)ethyl-1-d)amino)-6-(1-(fluoromethyl)cyclopropyl)-2-methyl-8-(4-(methylsulfonyl)piperidin-1-yl)pyrido[4,3-d]pyrimidine-7(6H)-one] | 35.6 | 59.8 |
| Cc1nc(N[C@H](C)c2cccc(C(F)F)c2F)c2cn(C3(CF)CC3)c(=O)c(NC3COC3)c2n1 [Example 61, (R)-4-((1-(3-(difluoromethyl)-2-fluorophenyl)ethyl)amino)-6-(1-(fluoromethyl)cyclopropyl)-2-methyl-8-(oxetan-3-ylamino)pyrido[4,3-d]pyrimidine-7(6H)-one] | 22.8 | 16.4 |
| Cc1nc(N[C@H](C)c2cccc(C(F)F)c2F)c2cn(C3(CF)CC3)c(=O)c(N3[C@@H](C)COC[C@@H]3C)c2n1 [Example 127, 4-(((R)-1-(3-(difluoromethyl)-2-fluorophenyl)ethyl)amino)-8-((3S,5S)-3,5-dimethylmorpholinyl)-6-(1-(fluoromethyl)cyclopropyl)-2-methylpyrido[4,3-d]pyrimidine-7(6H)-one] | 90 | 72.5 |
| Cc1nc(N[C@H](C)c2cccc(C(F)(F)C(C)(C)C#N)c2)c2cn(C3(CF)CC3)c(=O)cc2n1 [Example 6, (R)-3,3-difluoro-3-(3-(1-((6-(1-(fluoromethyl)cyclopropyl)-2-methyl-7-oxo-6,7-dihydropyrido[4,3-d]pyrimidin-4-yl)amino)ethyl)phenyl)-2,2-dimethylpropanenitrile] | 80 | 112 |
| Cc1nc(N[C@H](C)c2cccc(C(F)F)c2F)c2cn(C3(CF)CC3)c(=O)c(N3CCN(CC4CC4)CC3)c2n1 [Example 132, (R)-8-(4-(cyclopropylmethyl)piperazin-1-yl)-4-((1-(3-(difluoromethyl)-2-fluorophenyl)ethyl)amino)-6-(1-(fluoromethyl)cyclopropyl)-2-methylpyrido[4,3-d]pyrimidine-7(6H)-one] | 37.3 | 84.3 |
| Cc1nc(N[C@H](C)c2cccc(C(F)F)c2F)c2cn(C3(CF)CC3)c(=O)c(N=S(C)(C)=O)c2n1 [Example 103, (R)-4-((1-(3-(difluoromethyl)-2-fluorophenyl)ethyl)amino)-8-((dimethyl(oxo)-λ^6-sulfanylidene)amino)-6-(1-(fluoromethyl)cyclopropyl)-2-methylpyrido[4,3-d]pyrimidine-7(6H)-one] | 130 | 82.4 |
| Cc1nc(N[C@H](C)c2cccc(C(F)F)c2F)c2cn(C3(CF)CC3)c(=O)c(N3CCN(C4CC4)CC3)c2n1 [Example 142, (R)-8-(4-cyclopropylpiperazin-1-yl)-4-((1-(3-(difluoromethyl)-2-fluorophenyl)ethyl)amino)-6-(1-(fluoromethyl)cyclopropyl)-2-methylpyrido[4,3-d]pyrimidine-7(6H)-one] | 24.1 | 43.7 |
| Cc1nc(N[C@H](C)c2cccc(C(F)F)c2F)c2cn(C3(CF)CC3)c(=O)c(N3CCN4CCC[C@@H]4C3)c2n1 (stereo in doubt) [Example 97, 4-(((R)-1-(3-(difluoromethyl)-2-fluorophenyl)ethyl)amino)-6-(1-(fluoromethyl)cyclopropyl)-8-((R)-hexahydropyrrolo[1,2-a]pyrazin-2(1H)-yl)-2-methylpyrido[4,3-d]pyrimidine-7(6H)-one] | 11.8 | 66.3 |
| Cc1nc(N[C@H](C)c2cccc([N+](=O)[O-])c2C)c2cn(C3(CF)CC3)c(=O)cc2n1 [Example 13] | 54.1 | 131 |
| Cc1nc(N[C@H](C)c2cccc(C(F)F)c2F)c2cn(C3(CF)CC3)c(=O)c(OC(F)F)c2n1 [Example 119, (R)-8-(difluoromethoxy)-4-((1-(3-(difluoromethyl)-2-fluorophenyl)ethyl)amino)-6-(1-(fluoromethyl)cyclopropyl)-2-methylpyrido[4,3-d]pyrimidine-7(6H)-one] | 72.1 | 54.6 |

Source: patent publication EP4417607A1, “HETEROCYCLIC COMPOUND AS SOS1 INHIBITOR AND USES THEREOF” (Nanjing Zaiming Pharmaceutical Co., Ltd., priority 2021, dated 2023)
